Test results: patent publication US20260273028A1, “PEROXIDASE COMPOSITIONS CONTAINING IMPROVED ENHANCING AGENTS” (FLEN HEALTH PHARMA NV, priority 2022, published 2026)

Assays:
Assay type in all cases: cell-based
[1] = test system: Pseudomonas aeruginosa ATCC®9027™; assay: Absolute microbial counts in function of enzyme solution concentration; details: for reduction in absolute P. aeruginosa counts compared to reference and guaiacol solution: 0.005%-0.0000391% (v/v) GOX+LPO
Text: (§1) Absolute microbial counts in function of concentration of the antimicrobial agent tested are useful to monitor the bactericidal and fungicidal efficacy of that agent.
(§2) To determine the absolute number of live microorganisms in function of different enzyme solution concentrations tested, a classical broth microdilution assay combined with standard CFU enumeration techniques was used to determine the susceptibility of a series of microbes commonly detected in infected wounds, including (a) the Gram-positive bacterium Staphylococcus aureus ATCC® 6538™ (results shown below), (b) the Gram-negative bacterium Pseudomonas aeruginosa ATCC®9027™ (results shown below), (c) the yeast Candida albicans ATCC®10231™ (results shown below), and (d) the fungus Aspergillus niger ATCC®16404™ (results shown below). In brief, the broth microdilution assay was set up as previously described (see 2.1). After incubation, the absolute microbial count at the MIC and following higher concentrations (MICx2, MICx4, and so on) was determined using standard CFU enumeration techniques. For each combination evaluated, this test was repeated at least 5 times. The collected data were further analyzed in MS Excel and expressed as log CFU/ml. Mean results were plotted in function of enzyme solution concentration.

[2] = test system: Aspergillus niger ATCC®16404™; assay: as above; details: 0.005%-0.000156% (v/v) GOX+LPO
Text: as §1, §2

A. niger (ATCC®16404 ™) = assay: Microbial challenge testing in alginogel with GOX+LPO; details: for reduction in absolute A. niger counts compared to guaiacol in the same concentration: alginogel with GOX+LPO; for antimicrobial activity of enhancing candidate only against A. niger: alginogel without enzymes, highest concentration tested; for reduction in absolute A. niger counts compared to reference (enzymes only): alginogel, 0.0075% GOX+LPO
Protocol: (§3) To determine the ability of an antimicrobial agent to elicit an antimicrobial preserving efficacy in a gel environment, a microbiological challenge test can be performed. Here, the antimicrobial agent is a combination of the natural enzymes GOX+LPO. […] Microbial challenge testing was performed according to the method described in the European Pharmacopoeia current version chapter 5.1.3 ‘Efficacy of antimicrobial preservation’, but with adapted time points (0, 10, 20, 30, 40, 50, 60, 70 and 80 min instead of 0, 2, 7, 14 and 28 days). In brief, for every enhancing agent to be evaluated, a lab-scale alginogel (based on the Flaminal® formulation, but without the original enhancer guaiacol) including 0.0075% GOX+LPO (1:1) was prepared according to standard practices. Enhancing agents were added to the alginogel in a final concentration ranging from 0.01 to 0,00025% (v/w). As a reference, an alginogel including 0.0075% GOX+LPO (1:1) without the addition of any enhancing agent was included (designated as: enzymes only). As a control, an alginogel without both GOX+LPO (1:1) enzyme solution and enhancing agent (designated as: empty gel) as well as an alginogel only containing the enhancing agent only (designated as: enhancing candidate only) were included. After preparation, a homogenous sample of 10 g was transferred into a 50 ml conical tube for each alginogel to be evaluated and microorganism to be tested. For each test microorganism, including S. aureus (ATCC®6538™), P. aeruginosa (ATCC®9027™), C. albicans (ATCC®10231™) and A. niger (ATCC®16404 ™), a microbial suspension of about 10^8 CFU/ml was prepared in sterile diluent (buffered sodium chloride-peptone solution). Then, the 50 ml conical tubes containing the alginogel samples to be evaluated were inoculated with 100 μl of the designated inoculum. At the start (time point 0) and after 0, 10, 20, 30, 40, 50, 60, 70 and 80 min, the number of viable microorganisms per gram product (expressed as CFU/g) was determined by transferring a sample of 0.5 g of the product into a 15 ml conical tube containing 4.5 ml of sterile diluent and applying general dilution and plate count techniques. For each combination evaluated, this test was repeated at least 1-3 times. The collected data were further analyzed in MS Excel. Mean absolute counts (expressed as log CFU/g) were visualized in a graph.

[3] = test system: P. aeruginosa (ATCC®9027™); assay: as above; details: for reduction in absolute P. aeruginosa counts compared to guaiacol in the same concentration: alginogel with GOX+LPO, enhancer 0.0005%; for antimicrobial activity of enhancing candidate only against P. aeruginosa: alginogel without enzymes, highest concentration tested; for reduction in absolute P. aeruginosa counts compared to reference (enzymes only): alginogel, 0.0075% GOX+LPO
Protocol: as §3

[4] = test system: C. albicans (ATCC®10231™); assay: as above; details: for reduction in absolute C. albicans counts compared to guaiacol in the same concentration: alginogel with GOX+LPO, enhancer 0.0005%; for antimicrobial activity of enhancing candidate only against C. albicans: alginogel without enzymes, highest concentration tested; for reduction in absolute C. albicans counts compared to reference (enzymes only): alginogel, 0.0075% GOX+LPO
Protocol: as §3

S. aureus (ATCC®6538™) = assay: as above; details: for reduction in absolute S. aureus counts compared to guaiacol in the same concentration: alginogel with GOX+LPO, enhancer 0.0005%; for antimicrobial activity of enhancing candidate only against S. aureus: alginogel without enzymes, highest concentration tested; for reduction in absolute S. aureus counts compared to reference (enzymes only): alginogel, 0.0075% GOX+LPO
Protocol: as §3
The purpose of the hereby described experiment was to compare the efficacy of antimicrobial activity enhancement of the GOX+LPO (1:1) enzyme combination by ethanolamine and proline in a microbial challenge test using S. aureus. The test was set up as described in the section on ‘challenge testing’ in Example 2.4. The test was repeated at least 3 times.
The purpose of the hereby described experiment was to compare the efficacy of antimicrobial activity of the GOX+LPO (1:1) enzyme combination in the presence of potassium chloride/potassium bromide and potassium iodide. A microbial challenge test using S. aureus was performed. The test was set up as described in the section on ‘challenge testing’ in Example 2.4.

[5] = enhancer 0,1%, 0,005%-0.000625% (v/v) GOX+LPO
[6] = enhancer 1%, 0,005%-0.000156% (v/v) GOX+LPO

| SMILES | reduction in absolute P. aeruginosa counts compared to reference [1, 5] | reduction in absolute P. aeruginosa counts compared to reference [1, 6] | reduction in absolute A. niger counts compared to reference ([2]; enhancer 1-0.01%) | antimicrobial activity of enhancing candidate only against A. niger (A. niger (ATCC®16404 ™)) | reduction in absolute A. niger counts compared to reference (enzymes only) (A. niger (ATCC®16404 ™); enhancer 0.0025%) | reduction in absolute P. aeruginosa counts compared to guaiacol in the same concentration [3] | antimicrobial activity of enhancing candidate only against P. aeruginosa [3] | reduction in absolute P. aeruginosa counts compared to reference (enzymes only) ([3]; enhancer 0.00125-0.0005%) | reduction in absolute P. aeruginosa counts compared to reference (enzymes only) ([3]; enhancer 0.0025%) | reduction in absolute C. albicans counts compared to guaiacol in the same concentration [4] | antimicrobial activity of enhancing candidate only against C. albicans [4] | reduction in absolute C. albicans counts compared to reference (enzymes only) ([4]; enhancer 0.0025%) | reduction in absolute S. aureus counts compared to guaiacol in the same concentration (S. aureus (ATCC®6538™)) | antimicrobial activity of enhancing candidate only against S. aureus (S. aureus (ATCC®6538™)) | reduction in absolute S. aureus counts compared to reference (enzymes only) (S. aureus (ATCC®6538™); enhancer 0.00125-0.0005%) | reduction in absolute S. aureus counts compared to reference (enzymes only) (S. aureus (ATCC®6538™); enhancer 0.0025%) | reduction in absolute A. niger counts compared to guaiacol in the same concentration (A. niger (ATCC®16404 ™); enhancer 0.0005%) | reduction in absolute C. albicans counts compared to reference (enzymes only) ([4]; enhancer 0.00125%) | other results |
| --- | --- | --- | --- | --- | --- | --- | --- | --- | --- | --- | --- | --- | --- | --- | --- | --- | --- | --- | --- |
| C[C@@H](O)[C@H](N)C(=O)O [Threonine, threonine] | stronger reduction | stronger reduction | stronger reduction | no antimicrobial activity | faster complete reduction | faster complete reduction | no antimicrobial activity | faster complete reduction | immediate entire reduction | faster complete reduction | no antimicrobial activity | immediate entire reduction | faster complete reduction | no antimicrobial activity | faster complete reduction | immediate entire reduction |  |  | reduction in absolute A. niger counts compared to guaiacol in the same concentration (A. niger (ATCC®16404 ™); enhancer 0.0025%): faster complete reduction; reduction in absolute C. albicans counts compared to reference (enzymes only) ([4]; enhancer 0,00125-0,0005%): faster complete reduction |
| NC(=O)C[C@H](N)C(=O)O [Asparagine, asparagine] | stronger reduction | stronger reduction |  | no antimicrobial activity |  |  | no antimicrobial activity |  | immediate entire reduction |  | no antimicrobial activity | immediate entire reduction |  | no antimicrobial activity |  | immediate entire reduction | faster complete reduction | faster complete reduction | reduction in absolute A. niger counts compared to reference ([2]; enhancer 1-0.05%): stronger reduction; reduction in absolute A. niger counts compared to reference (enzymes only) (A. niger (ATCC®16404 ™); enhancer 0,0025-0,0005%): faster complete reduction; reduction in absolute P. aeruginosa counts compared to reference (enzymes only) ([3]; enhancer 0,00125%): faster complete reduction; reduction in absolute S. aureus counts compared to reference (enzymes only) (S. aureus (ATCC®6538™); enhancer 0,00125%): faster complete reduction |
| O=C(O)[C@@H]1CCCN1 [Proline, proline] |  |  | stronger reduction | no antimicrobial activity | faster complete reduction | faster complete reduction | no antimicrobial activity | faster complete reduction | immediate entire reduction | faster complete reduction | no antimicrobial activity | immediate entire reduction | faster complete reduction | no antimicrobial activity | faster complete reduction | immediate entire reduction | faster complete reduction | faster complete reduction | reduction in absolute P. aeruginosa counts compared to reference and guaiacol solution ([1]; enhancer 0.0025-0.00125%): stronger reduction; reduction in absolute P. aeruginosa counts compared to reference and guaiacol solution ([1]; enhancer 0.01-0.001%): stronger reduction; exposure time to complete reduction of absolute S. aureus counts (average) (S. aureus (ATCC®6538™); alginogel with GOX+LPO (1:1), enhancer 0,0005% (v/v)): 60 min |
